Activity calls are given as the source filed them. No cut-off for these calls is given here.
Columns and labels:
[1] = target: T1, von Hippel-Lindau disease tumor suppressor/Tyrosine-protein kinase ABL1/Breakpoint cluster region protein (Homo sapiens, UniProt P00519+P11274+P40337); experiment: Protac activity against VHL/BCR-ABL in human K562 cell lysates assessed as induction of pull down of endogenous ABL at 10 to 100 nM in presence of excess immobilized GST-VBC bait by GST-pull down assay; format: subcellular; conditions: Lysate
[2] = target: von Hippel-Lindau disease tumor suppressor/Platelet-derived growth factor receptor beta (Homo sapiens) (UniProt P09619+P40337); experiment: Protac activity against VHL/PDGFRbeta in human K562 cells assessed as reduction in PDGFRbeta protein levels at 1 to 100 nM incubated for 16 hrs by Western blot analysis; format: cell-based
[3] = tested on: K562; experiment: Effect on YES protein level in human K562 cells at 100 nM incubated for 16 hrs by multiplexed tandem mass spectrometry; format: ADME, cell-based; conditions: k562, 16 h, 0.1 µM
[4] = tested on: K562; experiment: Effect on LYN protein level in human K562 cells at 100 nM incubated for 16 hrs by multiplexed tandem mass spectrometry; format: ADME, cell-based; conditions: k562, 16 h, 0.1 µM
[5] = Toxicity in NOD/SCID mouse xenografted with luciferse expressing human K562 cells assessed as effect on body weight at 5 to 15 mg/kg, ip QD for 12 days; format: organism-based; conditions: in vivo, 288 h
[6] = target: T1, von Hippel-Lindau disease tumor suppressor/Tyrosine-protein kinase ABL1/Breakpoint cluster region protein; experiment: Protac activity against VHL/BCR-ABL (unknown origin) expressed in human U937 cells assessed as induction of BCR-ABL degradation incubated for 16 hrs by Western blot analysis; format: cell-based
[7] = target: T2, Bcr/Abl fusion protein (Homo sapiens) (UniProt P00519+P11274); experiment: Inhibition of BCR-ABL in human KU812 cells assessed as reduction in STAT5 phosphorylation at 1 to 30 nM by Western blot analysis; format: cell-based
[8] = tested on: SUP-B15; experiment: Growth inhibition of human SUP-B15 cells incubated for 2 days by CCK8 assay; format: functional, cell-based
[9] = tested on: K562; experiment: Effect on BCR-ABL protein levels in human K562 cells at 100 nM up to 24 hrs by Western blot analysis; format: ADME, cell-based; conditions: k562, 24 h, 0.1 µM
[10] = target: T1, von Hippel-Lindau disease tumor suppressor/Tyrosine-protein kinase ABL1/Breakpoint cluster region protein; experiment: Protac activity against VHL/BCR-ABL in human K562 cell lysates assessed as induction of pull down of endogenous BCR-ABL at 10 to 100 nM in presence of excess immobilized GST-VBC bait by GST-pull down assay; format: subcellular; conditions: Lysate
[11] = tested on: Mus musculus; experiment: Inhibition of BCR-ABL phosphorylation in NOD/SCID mouse xenografted with luciferse expressing human K562 cells at 5 to 15 mg/kg, ip QD for 4 days by Western blotting analysis; format: functional, organism-based
[12] = target: von Hippel-Lindau disease tumor suppressor/Mast/stem cell growth factor receptor Kit (Homo sapiens) (UniProt P10721+P40337); experiment: Protac activity against VHL/KIT in human K562 cells assessed as reduction in Kit protein levels at 1 to 100 nM incubated for 16 hrs by Western blot analysis; format: cell-based
[13] = tested on: HL-60; experiment: Growth inhibition of human HL60 cells incubated for 2 days by CCK8 assay; format: functional, cell-based
[14] = target: T1, von Hippel-Lindau disease tumor suppressor/Tyrosine-protein kinase ABL1/Breakpoint cluster region protein; experiment: Protac activity against VHL/BCR-ABL in human K562 cells assessed as induction of BCR-ABL degradation pre-treated with 4 uM VHL1 for 2 hrs followed by compound addition at 100 nM and further incubated for 8 hrs by Western blot analysis; format: cell-based
[15] = target: von Hippel-Lindau disease tumor suppressor/Receptor-interacting serine/threonine-protein kinase 2 (Homo sapiens) (UniProt O43353+P40337); experiment: Protac activity against VHL/RIPK2 in human K562 cells assessed as reduction in RIPK2 protein levels at 1 to 100 nM incubated for 16 hrs by Western blot analysis; format: cell-based
[16] = target: T1, von Hippel-Lindau disease tumor suppressor/Tyrosine-protein kinase ABL1/Breakpoint cluster region protein; experiment: Induction of ternary complex formation between VHL and BCR-ABL (unknown origin) expressed in HEK293 cells expressing N-terminal BCR-ABL LgBit fusion protein and N-terminal SmBit-VHL fusion protein incubated for 1 hr by NanoBit technology based luciferase complementation assay; format: cell-based
[17] = tested on: von Hippel-Lindau disease tumor suppressor/Tyrosine-protein kinase ABL1/Breakpoint cluster region protein (Homo sapiens), P00519+P11274+P40337 [F317V]; experiment: Protac activity against VHL/BCR-ABL F317V mutant (unknown origin) expressed in human U937 cells assessed as induction of BCR-ABL degradation incubated for 16 hrs by Western blot analysis; format: cell-based
[18] = target: von Hippel-Lindau disease tumor suppressor/Tyrosine-protein kinase ABL2 (Homo sapiens) (UniProt P42684); experiment: Protac activity against VHL/BCR-ABL in human K562 cells assessed as reduction in ABL2 protein levels at 100 nM incubated for 16 hrs by multiplexed tandem mass spectrometry
[19] = tested on: K562; experiment: Antitumor activity against luciferse expressing human K562 cells xenografted in NOD/SCID mouse assessed as attenuation of tumor progression at 5 to 15 mg/kg, ip QD for 12 days by serial volumetric analysis; format: functional, organism-based
[20] = target: T2, Bcr/Abl fusion protein (Homo sapiens); experiment: Inhibition of BCR-ABL phosphorylation in human K562 cells at 1 to 100 nM by Western blot analysis; format: cell-based
[21] = target: Tyrosine-protein kinase ABL1 (Homo sapiens) (UniProt P00519); experiment: Binding affinity to human non-phosphorylated ABL1 (S229 to K512 residues) expressed in mammalian expression system assessed as residual binding level at 10 uM by Kinomescan method relative to control
[22] = target: T1, von Hippel-Lindau disease tumor suppressor/Tyrosine-protein kinase ABL1/Breakpoint cluster region protein; experiment: Protac activity against VHL/BCR-ABL in human K562 cells assessed as induction of BCR-ABL degradation by Western blot analysis; format: cell-based
[23] = tested on: von Hippel-Lindau disease tumor suppressor/Tyrosine-protein kinase ABL1/Breakpoint cluster region protein (Homo sapiens), P00519+P11274+P40337 [T315I]; experiment: Protac activity against VHL/BCR-ABL T315I mutant (unknown origin) expressed in human U937 cells assessed as induction of BCR-ABL degradation incubated for 16 hrs by Western blot analysis; format: cell-based
[24] = target: von Hippel-Lindau disease tumor suppressor/Tyrosine-protein kinase ABL1 (Homo sapiens) (UniProt P00519+P40337); experiment: Protac activity against VHL/c-ABL in human K562 cells assessed as reduction in c-ABL protein levels at 1 to 100 nM incubated for 16 hrs by Western blot analysis; format: cell-based
[25] = target: Tyrosine-protein kinase ABL1 (Homo sapiens) (UniProt P00519); experiment: Binding affinity to human phosphorylated ABL1 (S229 to K512 residues) expressed in mammalian expression system assessed as residual binding level at 10 uM by Kinomescan method relative to control
[26] = tested on: K562; experiment: Growth inhibition of human K562 cells incubated for 2 days by CCK8 assay; format: functional, cell-based; conditions: K562, 48 h
[27] = target: T1, von Hippel-Lindau disease tumor suppressor/Tyrosine-protein kinase ABL1/Breakpoint cluster region protein; experiment: Protac activity against VHL/BCR-ABL in human K562 cells assessed as reduction in BCR-ABL protein levels at 1 to 100 nM incubated for 16 hrs by Western blot analysis; format: cell-based
[28] = tested on: KU812 cell line; experiment: Growth inhibition of human KU812 cells incubated for 2 days by CCK8 assay; format: functional, cell-based
[29] = target: T2, Bcr/Abl fusion protein (Homo sapiens); experiment: Inhibition of BCR-ABL phosphorylation in human KU812 cells at 1 to 30 nM by Western blot analysis; format: cell-based

T2 sequence (P00519 whole entry, looked up, the tested form may be a part): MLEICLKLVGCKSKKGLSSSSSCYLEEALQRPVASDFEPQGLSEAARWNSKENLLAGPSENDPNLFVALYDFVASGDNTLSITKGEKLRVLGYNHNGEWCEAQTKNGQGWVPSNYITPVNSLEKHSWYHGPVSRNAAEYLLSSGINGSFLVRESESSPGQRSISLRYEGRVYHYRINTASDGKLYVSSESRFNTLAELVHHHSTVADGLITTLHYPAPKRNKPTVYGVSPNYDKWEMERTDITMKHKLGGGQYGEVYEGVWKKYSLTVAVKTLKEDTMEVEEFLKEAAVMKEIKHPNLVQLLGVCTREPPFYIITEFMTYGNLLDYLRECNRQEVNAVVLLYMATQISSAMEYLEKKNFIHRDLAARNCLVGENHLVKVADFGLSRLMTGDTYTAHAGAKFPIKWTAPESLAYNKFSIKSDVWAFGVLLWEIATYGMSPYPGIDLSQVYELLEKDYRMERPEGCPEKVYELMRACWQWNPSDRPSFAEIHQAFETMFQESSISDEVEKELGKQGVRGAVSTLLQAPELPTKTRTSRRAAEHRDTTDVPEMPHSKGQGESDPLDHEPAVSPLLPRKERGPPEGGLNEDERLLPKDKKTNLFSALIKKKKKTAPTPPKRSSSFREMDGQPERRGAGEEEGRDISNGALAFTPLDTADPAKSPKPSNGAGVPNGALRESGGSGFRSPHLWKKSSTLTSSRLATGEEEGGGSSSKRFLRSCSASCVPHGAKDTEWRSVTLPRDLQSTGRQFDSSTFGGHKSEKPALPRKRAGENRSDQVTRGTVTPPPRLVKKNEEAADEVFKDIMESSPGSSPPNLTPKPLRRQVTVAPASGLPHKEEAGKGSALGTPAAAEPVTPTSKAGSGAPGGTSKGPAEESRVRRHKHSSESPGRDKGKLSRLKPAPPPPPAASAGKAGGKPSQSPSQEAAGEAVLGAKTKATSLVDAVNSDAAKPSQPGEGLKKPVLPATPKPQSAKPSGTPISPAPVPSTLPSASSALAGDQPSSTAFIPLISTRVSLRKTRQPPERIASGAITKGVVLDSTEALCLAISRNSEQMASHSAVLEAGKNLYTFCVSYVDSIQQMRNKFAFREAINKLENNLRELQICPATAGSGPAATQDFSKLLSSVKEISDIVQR
T2 sequence (P11274 whole entry, looked up, the tested form may be a part): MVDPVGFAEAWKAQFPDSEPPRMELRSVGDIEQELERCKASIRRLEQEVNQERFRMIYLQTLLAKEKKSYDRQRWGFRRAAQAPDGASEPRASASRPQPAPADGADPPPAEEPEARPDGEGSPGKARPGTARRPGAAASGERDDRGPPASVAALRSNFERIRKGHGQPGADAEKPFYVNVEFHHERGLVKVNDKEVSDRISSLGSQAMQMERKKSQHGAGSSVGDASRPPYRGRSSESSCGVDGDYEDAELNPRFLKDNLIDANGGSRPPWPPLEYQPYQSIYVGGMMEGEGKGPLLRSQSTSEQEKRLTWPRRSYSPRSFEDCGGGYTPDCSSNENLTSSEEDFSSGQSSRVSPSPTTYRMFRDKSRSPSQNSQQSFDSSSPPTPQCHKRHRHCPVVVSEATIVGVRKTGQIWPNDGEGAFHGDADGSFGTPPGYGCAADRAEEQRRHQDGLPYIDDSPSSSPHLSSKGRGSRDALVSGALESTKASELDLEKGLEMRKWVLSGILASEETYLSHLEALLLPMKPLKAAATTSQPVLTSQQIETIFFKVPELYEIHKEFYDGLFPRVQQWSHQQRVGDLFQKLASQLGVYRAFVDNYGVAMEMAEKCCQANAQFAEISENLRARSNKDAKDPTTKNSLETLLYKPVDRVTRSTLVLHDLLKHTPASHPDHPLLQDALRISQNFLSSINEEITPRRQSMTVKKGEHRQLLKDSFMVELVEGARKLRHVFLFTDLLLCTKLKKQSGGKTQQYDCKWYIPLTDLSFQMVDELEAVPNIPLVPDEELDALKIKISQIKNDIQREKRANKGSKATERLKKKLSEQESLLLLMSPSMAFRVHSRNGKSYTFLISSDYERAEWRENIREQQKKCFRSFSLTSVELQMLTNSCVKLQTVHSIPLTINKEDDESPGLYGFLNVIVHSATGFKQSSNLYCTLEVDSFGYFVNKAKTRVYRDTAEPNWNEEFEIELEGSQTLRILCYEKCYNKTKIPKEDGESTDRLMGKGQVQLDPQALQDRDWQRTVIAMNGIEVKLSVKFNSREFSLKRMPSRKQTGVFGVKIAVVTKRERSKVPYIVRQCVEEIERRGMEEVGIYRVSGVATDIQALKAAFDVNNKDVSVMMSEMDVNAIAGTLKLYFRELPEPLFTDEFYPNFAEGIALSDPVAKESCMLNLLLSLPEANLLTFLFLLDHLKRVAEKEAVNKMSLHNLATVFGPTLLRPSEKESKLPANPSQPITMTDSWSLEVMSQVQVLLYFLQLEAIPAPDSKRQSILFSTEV
Chain of Tyrosine-protein kinase ABL1 (Homo sapiens) (P00519 whole entry, the tested form may be a part): as the sequence (P00519 whole entry, looked up, the tested form may be a part) above
Chain of von Hippel-Lindau disease tumor suppressor/Tyrosine-protein kinase ABL1 (Homo sapiens) (P00519 whole entry, looked up, the tested form may be a part): as above
Chain of von Hippel-Lindau disease tumor suppressor/Tyrosine-protein kinase ABL1 (Homo sapiens) (P40337 whole entry, looked up, the tested form may be a part): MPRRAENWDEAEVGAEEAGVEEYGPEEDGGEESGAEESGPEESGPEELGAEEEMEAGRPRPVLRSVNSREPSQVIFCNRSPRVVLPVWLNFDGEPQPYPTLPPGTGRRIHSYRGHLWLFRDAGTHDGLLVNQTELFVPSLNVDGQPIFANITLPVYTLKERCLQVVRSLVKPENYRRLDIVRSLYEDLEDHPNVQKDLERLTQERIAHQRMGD

Structure (SMILES): Cc1nc(Nc2ncc(C(=O)Nc3c(C)cccc3Cl)s2)cc(N2CCN(C(=O)CCCCCCC(=O)N[C@H](C(=O)N3C[C@H](O)C[C@H]3C(=O)NCc3ccc(-c4scnc4C)cc3)C(C)(C)C)CC2)n1
- Activity [1]: Dose-dependent effect
- Activity [2]: Dose-dependent effect
- Activity [3]: Non-Toxic
- Activity [4]: Non-Toxic
- Activity [5]: Non-Toxic
- Activity [6]: Dose-dependent effect
- inhibition [7]: Active
- growth inhibition (GI) [8]: Active
- Activity [9]: Non-Toxic
- Activity [10]: Dose-dependent effect
- inhibition [11]: Active
- Activity [12]: inactive
- growth inhibition (GI) [13]: inactive
- Activity [14]: inactive
- Activity [15]: Dose-dependent effect
- Activity [16]: Active
- Activity [17]: Dose-dependent effect
- Activity [18]: Active
- Activity [19]: Dose-dependent effect
- inhibition [20]: Active
- Activity [21]: Active
- Activity [22]: Dose-dependent effect
- DC50 [22]: 8.5 nM
- Activity [23]: inactive
- Activity [24]: Dose-dependent effect
- Activity [25]: Active
- IC50 [26]: 24 nM
- Activity [27]: Dose-dependent effect
- growth inhibition (GI) [28]: Active
- inhibition [29]: Active

Reference: ChEMBL document CHEMBL4414590, “Discovery of SIAIS178 as an Effective BCR-ABL Degrader by Recruiting Von Hippel-Lindau (VHL) E3 Ubiquitin Ligase” (J Med Chem, 2019)
